The nature of the data set: TIMS collisional cross section (CCS, N2) of the lipid ion; higher = larger ion cross section. As to conditions: ionization mode: positive, one isomer drawn.

± gives the standard deviation of the averaged measurements.

Turning to `CCCCC/C=C\C/C=C\CCCCCCCCCCCC(=O)OC[C@@H](COC(=O)CCCCCCC/C=C\CCCCCC)OC(=O)CCCCCCC/C=C\CCCCCCCCC` [TG 16:1_19:1_22:2] (ion (formula + adduct): [C60H108O6+NH4] 1+), the “TIMS collisional cross section” value (sample type: HeLa) was determined as 332.3 Å².
For the molecule `CCCCCCC/C=C\CCCCCCCC(=O)OC[C@H](COC(=O)CCCCCCCCCCCCCCCCCC)OC(=O)CCCCCCC/C=C\CCCCCCCC` [TG 17:1_18:1_19:0] (ion (formula + adduct): [C57H106O6+NH4] 1+), the “TIMS collisional cross section” value (sample type: Liver) worked out at 328.8 Å².
`CC/C=C\C/C=C\C/C=C\C/C=C\C/C=C\CCCCCC(=O)OC[C@@H](COC(=O)CCCCCCC/C=C\CCCCCCCC)OC(=O)CCC/C=C\C/C=C\C/C=C\C/C=C\CCCCC` [TG 18:1_20:4_22:5] (ion (formula + adduct): [C63H102O6+NH4] 1+): the “TIMS collisional cross section” value (sample type: HeLa) amounted to 333.4 Å².
Regarding `CCCCCCCC/C=C\CCCCCCCCCCCCCC(=O)N[C@@H](CO[C@@H]1O[C@H](CO)[C@@H](O)C(O)C1O)[C@H](O)/C=C/CCCCCCCCCCCCC` (stereo not given in full) [GlcCer d18:1_24:1@] (ion (formula + adduct): [C48H91NO8+H] 1+), where the note is “sample type: Liver”, the “TIMS collisional cross section” value is 302.8 Å².
Same read-out and setting: as for `CCCCCCCC/C=C\CCCCCCCCCC(=O)O[C@@H](CO)COC(=O)CCCCCCC/C=C\CCCCCCCC` [DG 18:1_20:1_0:0] (ion (formula + adduct): [C41H76O5+NH4] 1+), the figure is 271.8 Å².
`CCCCCCCCCCCCCCCCCCC(=O)OC[C@@H](COC(=O)CCCCCCCCCCCCCCC)OC(=O)CCCCCCCCCCCCCCCCC` [TG 16:0_18:0_19:0] (ion (formula + adduct): [C56H108O6+NH4] 1+): the “TIMS collisional cross section” value by setting is: (sample type: Liver) 329.3 Å²; (sample type: plasma) 329 Å².
As to `CCCCC/C=C\C/C=C\C/C=C\C/C=C\CCCC(=O)O[C@@H](CO)COC(=O)CCCCCCC/C=C\CCCCCCCC` [DG 18:1_20:4_0:0] (ion (formula + adduct): [C41H70O5+NH4] 1+), the “TIMS collisional cross section” value (sample type: Liver) was 266 Å² and the “TIMS collisional cross section” value (sample type: plasma) came out at 265.8 Å².
For the molecule `CCCCC/C=C\C/C=C\CCCCCCCC(=O)OC[C@@H](COC(=O)CCCCCCCCCCCCC)OC(=O)CCCCCCC/C=C\CCCCCC` [TG 14:0_16:1_18:2] (ion (formula + adduct): [C51H92O6+NH4] 1+), the “TIMS collisional cross section” value is, setting by setting: (sample type: Liver) 306.1 Å²; (sample type: plasma) 307.8 ± 0.92 Å².
Consider `CC/C=C\C/C=C\C/C=C\C/C=C\C/C=C\C/C=C\CCC(=O)OC[C@@H](COC(=O)CCCCCCC/C=C\CCCCCC)OC(=O)CCCCCCCCCCCCCCCCC` [TG 16:1_18:0_22:6] (ion (formula + adduct): [C59H100O6+NH4] 1+), for which, where the note is “sample type: HeLa”, the “TIMS collisional cross section” value stood at 327.7 Å².
With `CCCCC/C=C\C/C=C\CCCCCCCC(=O)O[C@H](COC(=O)CCCCCCC/C=C\CCCCCCCC)COC(=O)CCCCCCCCCCCCCCCCCC` [TG 18:1_18:2_19:0] (ion (formula + adduct): [C58H106O6+NH4] 1+), the “TIMS collisional cross section” value (sample type: Liver) amounted to 329.2 Å².
Consider `CCCCCCCCCCCCCC(=O)OC[C@@H](COC(=O)CCCCCCCCCCC)OC(=O)CCCCCCCCCCC` [TG 12:0_12:0_14:0] (ion (formula + adduct): [C41H78O6+NH4] 1+), for which the “TIMS collisional cross section” value reads like this: (sample type: HeLa) 283 Å²; (sample type: Liver) 281.3 ± 0.57 Å²; (sample type: plasma) 282.9 Å².
With `CCCCC/C=C\C/C=C\CCCCCCCC(=O)OC[C@@H](COC(=O)CCCCCCCCCCCCCC)OC(=O)CCCCCCC/C=C\CCCCCC` [TG 15:0_16:1_18:2] (ion (formula + adduct): [C52H94O6+NH4] 1+), the “TIMS collisional cross section” value came to 310.7 ± 0.99 Å² (sample type: Liver) and 310.4 Å² (sample type: plasma).
Turning to `CCCCC/C=C\C/C=C\C/C=C\C/C=C\CCCC(=O)OC[C@H](COP(=O)(O)OCCN)OC(=O)CCCCCCCCCCCCC` [PE 20:4@_14:0] (ion (formula + adduct): [C39H70NO8P+H] 1+), the “TIMS collisional cross section” value (sample type: HeLa) was 270.2 Å².
Take `CCCCC/C=C\C/C=C\C/C=C\C/C=C\CCCC(=O)O[C@H](COCCCCCCCCCCCCCCCC)COP(=O)(O)OCCN` [PE O- 16:0@_20:4] (ion (formula + adduct): [C41H76NO7P+H] 1+): the “TIMS collisional cross section” value (sample type: plasma) is reported as 275.8 Å².
In the case of `CCCCC/C=C\C/C=C\CCCCCCCC(=O)O[C@H](COC(=O)CCCCCCC/C=C\CCCCCCCC)COP(=O)(O)OCCN` [PE 18:1_18:2] (ion (formula + adduct): [C41H76NO8P+Na] 1+), the “TIMS collisional cross section” value was 276 Å² (sample type: HeLa) and 277.2 Å² (sample type: Liver).
As to `CCCCC/C=C\C/C=C\CCCCCCCCCC(=O)O[C@@H](CO)COC(=O)CCCCCCC/C=C\CCCCCCCC` [DG 18:1_20:2_0:0] (ion (formula + adduct): [C41H74O5+NH4] 1+), where the note is “sample type: plasma”, the “TIMS collisional cross section” value was 268.2 Å².
Take `CCCCCCCC/C=C\CCCCCCCCCC(=O)O[C@H](COC(=O)CCCCCCCCCCCCCCCCC)COP(=O)(O)OCCN` [PE 18:0_20:1] (ion (formula + adduct): [C43H84NO8P+H] 1+): for the setting “sample type: Liver”, the “TIMS collisional cross section” value came out at 289.3 Å².
Same read-out and setting: then `CCCCCCCCCCCCCCCCC(=O)OC[C@@H](COC(=O)CCCCCCCCCCC)OC(=O)CCCCCCCCCCCCCCC` [TG 12:0_16:0_17:0] (ion (formula + adduct): [C48H92O6+NH4] 1+), with 304.5 Å²; and `CC/C=C\C/C=C\C/C=C\C/C=C\C/C=C\C/C=C\CCC(=O)OC[C@@H](COC(=O)CCCCCCC/C=C\CCCCCCCC)OC(=O)CCCCCCCCCCC/C=C\CCCCCCCC` [TG 18:1_22:1_22:6] (ion (formula + adduct): [C65H110O6+NH4] 1+), with 342.5 Å².
Same read-out and setting: then `CCCCCCCCCCCCC/C=C/[C@@H](O)[C@H](CO)NC(=O)CCCCCCCCCCCCCCCCCCCCCCCC` [Cer d18:1_25:0@] (ion (formula + adduct): [C43H85NO3+H] 1+), with 284.1 Å².
On to `CCCCCC/C=C\CCCCCCCC(=O)OC[C@@H](O)COP(=O)(O)OCCN` [LPE 16:1] (ion (formula + adduct): [C21H42NO7P+H] 1+), for which the “TIMS collisional cross section” value (sample type: Liver) came out at 207.8 Å² and the “TIMS collisional cross section” value (sample type: plasma) amounted to 207.4 Å².
Take `CCCCCC/C=C\CCCCCCCCCC(=O)O[C@H](COC(=O)CCCCCCCCCCCCCCC)COP(=O)(O)OC[C@H](N)C(=O)O` [PS 16:0_18:1@] (ion (formula + adduct): [C40H76NO10P+H] 1+): under “sample type: HeLa”, the “TIMS collisional cross section” value is recorded as 282.1 Å².
Turning to `CC/C=C\C/C=C\C/C=C\CCCCCCCC(=O)OC[C@@H](COC(=O)CCCCCCC/C=C\C/C=C\CCCCC)OC(=O)CCCCCCC/C=C\C/C=C\CCCCC` [TG 18:2_18:2_18:3] (ion (formula + adduct): [C57H96O6+NH4] 1+), the “TIMS collisional cross section” value (sample type: plasma) came to 317.6 Å².
Same read-out and setting: as for `CC/C=C\C/C=C\C/C=C\C/C=C\C/C=C\CCCC(=O)OC[C@@H](COC(=O)CCCCCCCCCCCCCCCCC)OC(=O)CCCCCCC/C=C\C/C=C\C/C=C\CC` [TG 18:0_18:3_20:5] (ion (formula + adduct): [C59H98O6+NH4] 1+), the figure is 325.1 Å².
As for `CCCCCCCC/C=C\CCCCCCCCCCCC(=O)O[C@@H](CO)COC(=O)CCCCCCCCCCCCCCC` [DG 16:0_22:1_0:0] (ion (formula + adduct): [C41H78O5+NH4] 1+), the “TIMS collisional cross section” value (sample type: HeLa) was determined as 276.3 Å².
Still for that read-out and setting: then `CCCCCC/C=C\CCCCCCCC(=O)OC[C@@H](O)COP(=O)(O)OCCN` [LPE 16:1_0:0] (ion (formula + adduct): [C21H42NO7P+H] 1+), with 210.1 Å².
With `CC/C=C\C/C=C\C/C=C\C/C=C\C/C=C\CCCC(=O)OC[C@H](COP(=O)(O)O[C@H]1C(O)C(O)C(O)[C@@H](O)C1O)OC(=O)CCCCCCCCCCCCCCCCC` (stereo not given in full) [PI 20:5_18:0@] (ion (formula + adduct): [C47H81O13P+H] 1+), where the note is “sample type: plasma”, the “TIMS collisional cross section” value is given as 308 Å².
Turning to `CC/C=C\C/C=C\C/C=C\C/C=C\C/C=C\CCCC(=O)O[C@H](COC(=O)CCCCCCC/C=C\CCCCCC)COP(=O)([O-])OCC[N+](C)(C)C` [PC 16:1@_20:5] (ion (formula + adduct): [C44H76NO8P+H] 1+), the “TIMS collisional cross section” value (sample type: Liver) is on record as 282.8 Å².
The same measure, in the same setting: as for `CCCCCCCC/C=C\CCCCCCCC(=O)OC[C@@H](COC(=O)CCCCCCCCCCCCC)OC(=O)CCCCCCC/C=C\CCCCCCCC` [TG 14:0_18:1_18:1] (ion (formula + adduct): [C53H98O6+NH4] 1+), the figure is 315.3 Å².
As to `CCCCCCCCCCCCC/C=C/[C@@H](O)[C@H](COP(=O)([O-])OCC[N+](C)(C)C)NC(=O)CCCCCCCCCCCCCCCCCCCCC` [SM d18:1_22:0@] (ion (formula + adduct): [C45H91N2O6P+H] 1+), the “TIMS collisional cross section” value reads like this: (sample type: Liver) 302.3 Å²; (sample type: plasma) 301.9 Å².
For the molecule `CC/C=C\C/C=C\C/C=C\C/C=C\C/C=C\CCCCCC(=O)O[C@@H](CO)COC(=O)CCCCCCC/C=C\CCCCCCCC` [DG 18:1_22:5_0:0] (ion (formula + adduct): [C43H72O5+NH4] 1+), the “TIMS collisional cross section” value (sample type: Liver) worked out at 272.3 Å².
In the case of `CCCCCC/C=C\CCCCCCCCCC(=O)O[C@H](COC(=O)CCCCCCCCCCCCCCCCC)COP(=O)([O-])OCC[N+](C)(C)C` [PC 18:0_18:1] (ion (formula + adduct): [C44H86NO8P+H] 1+), the “TIMS collisional cross section” value (sample type: HeLa) is given as 294.7 Å² and the “TIMS collisional cross section” value (sample type: plasma) came to 295.2 Å².
Turning to `CCCCC/C=C\CCCCCCCC(=O)OC[C@H](COP(=O)([O-])OCC[N+](C)(C)C)OC(=O)CCCCCCC/C=C\CCCCCC` [PC 15:1_16:1@] (ion (formula + adduct): [C39H74NO8P+H] 1+), the “TIMS collisional cross section” value (sample type: HeLa) turned out to be 272.8 Å².
For `CCCCC/C=C\C/C=C\C/C=C\C/C=C\CCCC(=O)O[C@H](COC(=O)CCCC/C=C\C/C=C\C/C=C\CCCCC)COP(=O)(O)OCCN` [PE 18:3_20:4@] (ion (formula + adduct): [C43H72NO8P+H] 1+), the “TIMS collisional cross section” value came to 273.8 Å² (sample type: HeLa) and 273.7 Å² (sample type: Liver).

For the origin of these results see the supplement of paper PMC6965134.
